From PubChem BioAssay AID248 (DTP/NCI, 2004)
Values joined by “and” are separate entries in the source; they are usually repeats but may differ in a detail not shown here. Equal values may be shown once. Inconclusive results and toxic doses are left out. Cut-off read from the data, not from the text of the source: active = T/C of 150% or more; inactive = T/C below 125%.

Tested on: L1210 leukemia ip in BDF1 mice, survival T/C
Assay: NCI In Vivo Anticancer Drug Screen. Data for tumor model L1210 Leukemia (intraperitoneal) in B6D2F1 (BDF1) mice
Conditions: endpoint: mean survival time, higher = longer survival
In short: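 Tumor cells were implanted, animals were treated, and survival was followed. The result divides the treated measurement by the vehicle-control measurement.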

[1] = dose: 100.0 mg/kg/injection, schedule: Q04DX003 (ip), vehicle: Klucel (hydroxypropylcellulose) (HPC)
[2] = dose: 200.0 mg/kg/injection, schedule: Q04DX003 (ip), vehicle: Klucel (hydroxypropylcellulose) (HPC)
[3] = dose: 400.0 mg/kg/injection, schedule: Q04DX003 (ip), vehicle: Klucel (hydroxypropylcellulose) (HPC)
[4] = dose: 100.0 mg/kg/injection, schedule: Q01DX001 (ip), vehicle: saline
[5] = dose: 200.0 mg/kg/injection, schedule: Q01DX001 (ip), vehicle: saline
[6] = dose: 400.0 mg/kg/injection, schedule: Q01DX001 (ip), vehicle: saline
[7] = dose: 100.0 mg/kg/injection, schedule: Q04DX002 (ip), vehicle: Klucel (hydroxypropylcellulose) (HPC)
[8] = dose: 200.0 mg/kg/injection, schedule: Q04DX002 (ip), vehicle: Klucel (hydroxypropylcellulose) (HPC)
[9] = dose: 50.0 mg/kg/injection, schedule: Q01DX001 (ip), vehicle: saline
[10] = dose: 50.0 mg/kg/injection, schedule: Q01DX009 (ip), vehicle: Klucel (hydroxypropylcellulose) (HPC)
[11] = dose: 100.0 mg/kg/injection, schedule: Q01DX009 (ip), vehicle: Klucel (hydroxypropylcellulose) (HPC)
[12] = dose: 200.0 mg/kg/injection, schedule: Q01DX009 (ip), vehicle: Klucel (hydroxypropylcellulose) (HPC)
[13] = dose: 400.0 mg/kg/injection, schedule: Q01DX009 (ip), vehicle: Klucel (hydroxypropylcellulose) (HPC)

Measured: T/C

CC12CCC(C/C1=C\C#N)C(C)(C)O2 (stereo not given)
inactive: [1] 98 % of control | [2] 98 % of control | [3] 101 % of control

CCCCCCC(=O)/C=C/c1cccc(Cl)c1
inactive: dose: 100.0 mg/kg/injection, schedule: Q01DX009 (ip), vehicle: saline with Tween-80 88 % of control | dose: 200.0 mg/kg/injection, schedule: Q01DX009 (ip), vehicle: saline with Tween-80 88 % of control | dose: 400.0 mg/kg/injection, schedule: Q01DX009 (ip), vehicle: saline with Tween-80 95 % of control

Nc1cc(S(N)(=O)=O)ccc1Br
inactive: dose: 100.0 mg/kg/injection, schedule: Q04DX003 (ip), vehicle: water 95 % of control | dose: 200.0 mg/kg/injection, schedule: Q04DX003 (ip), vehicle: water 97 % of control | dose: 400.0 mg/kg/injection, schedule: Q04DX003 (ip), vehicle: water 92 % of control

Cc1ccc(Sc2cccc3c(C)c4cccc5c4c(c23)C[S+]5c2ccc(C)cc2)cc1 (stereo not given)
inactive: dose: 1.56 mg/kg/injection, schedule: Q01DX009 (ip), vehicle: saline with Tween-80 103 % of control | dose: 3.13 mg/kg/injection, schedule: Q01DX009 (ip), vehicle: saline with Tween-80 101 % of control | dose: 6.25 mg/kg/injection, schedule: Q01DX009 (ip), vehicle: saline with Tween-80 103 % of control

O=C(O)C1C(C(=O)O)C2C=CC1C21CCCC1 (stereo not given)
inactive: dose: 75.0 mg/kg/injection, schedule: Q01DX001 (ip), vehicle: saline 97 % of control | dose: 150.0 mg/kg/injection, schedule: Q01DX001 (ip), vehicle: saline 97 % of control | dose: 300.0 mg/kg/injection, schedule: Q01DX001 (ip), vehicle: saline 95 % of control

O=C1c2cccc(O)c2C(=O)c2c(O)cc(CO)cc21
inactive: [4] 98 % of control | [5] 95 % of control | [6] 95 % of control

CCCCCCCCCCCCNC(=O)c1ccccc1O
inactive: dose: 50.0 mg/kg/injection, schedule: Q01DX009 (ip), vehicle: other 96 % of control | dose: 100.0 mg/kg/injection, schedule: Q01DX009 (ip), vehicle: other 91 % of control | dose: 400.0 mg/kg/injection, schedule: Q01DX009 (ip), vehicle: other 101 % of control

CCCCCC(C)C1=NC(C)(C)CC(C)O1 (stereo not given)
inactive: dose: 5.0 mg/kg/injection, schedule: Q04DX003 (ip), vehicle: saline with Tween-80 101 % of control | dose: 10.0 mg/kg/injection, schedule: Q04DX003 (ip), vehicle: saline with Tween-80 95 % of control | dose: 20.0 mg/kg/injection, schedule: Q04DX003 (ip), vehicle: saline with Tween-80 108 % of control

CCc1nc(NN)nc(CC)c1-c1ccccc1O
inactive: [7] 105 % of control | [8] 91 % of control

CCCCn1c(=S)sc2ccccc21
inactive: [7] 94 % of control | [8] 109 % of control | dose: 400.0 mg/kg/injection, schedule: Q04DX002 (ip), vehicle: Klucel (hydroxypropylcellulose) (HPC) 88 % of control

COC(OC)C1=CC(=O)NC(NC(=O)C(Cl)Cl)N1 (stereo not given)
inactive: [9] 92 % of control | [4] 98 % of control | [5] 95 % of control

Clc1ccc([O][Sn]([c]2ccccc2)([c]2ccccc2)[c]2ccccc2)c(-c2ccccc2)c1
inactive: dose: 5.0 mg/kg/injection, schedule: Q01DX001 (ip), vehicle: saline 90 % of control | dose: 10.0 mg/kg/injection, schedule: Q01DX001 (ip), vehicle: saline 96 % of control

COc1ccc(NCNc2ccc(OC)cc2)cc1
inactive: [10] 94 % of control | [11] 98 % of control | [1] 103 % of control | [2] 103 % of control

O=C(CCN1CC1)OCCc1ccccc1
inactive: dose: 20.0 mg/kg/injection, schedule: Q04DX003 (ip), vehicle: Klucel (hydroxypropylcellulose) (HPC) 98 % of control | dose: 25.0 mg/kg/injection, schedule: Q01DX009 (ip), vehicle: Klucel (hydroxypropylcellulose) (HPC) 111 % of control | dose: 40.0 mg/kg/injection, schedule: Q04DX003 (ip), vehicle: Klucel (hydroxypropylcellulose) (HPC) 95 % of control | [10] 97 % of control | dose: 80.0 mg/kg/injection, schedule: Q04DX003 (ip), vehicle: Klucel (hydroxypropylcellulose) (HPC) 101 % of control | [1] 98 % of control

CC1(C)CC(C(=O)c2ccccc2)C(=O)c2ccccc21 (stereo not given)
inactive: dose: 100.0 mg/kg/injection, schedule: Q01DX001 (ip), vehicle: Klucel (hydroxypropylcellulose) (HPC) 105 % of control | dose: 200.0 mg/kg/injection, schedule: Q01DX001 (ip), vehicle: Klucel (hydroxypropylcellulose) (HPC) 97 % of control | dose: 400.0 mg/kg/injection, schedule: Q01DX001 (ip), vehicle: Klucel (hydroxypropylcellulose) (HPC) 86 % of control

COc1c([N+](=O)[O-])cc(C(=O)O)cc1[N+](=O)[O-]
inactive: [11] 104 % of control | [1] 99 % of control | [12] 98 % of control | [2] 97 % of control | [13] 98 % of control | [3] 97 % of control

CC(CC(=O)O)C1Nc2ccccc2S(=O)(=O)C(c2ccccc2)C1=O (stereo not given)
inactive: [1] 95 % of control and 100 % of control | [2] 99 % of control

CCN(CC)CCCC(C)Nc1ccc(NC(C)CCCN(CC)CC)c2c1C(=O)c1ccccc1C2=O (stereo not given)
inactive: dose: 25.0 mg/kg/injection, schedule: Q01DX009 (ip), vehicle: saline 96 % of control | dose: 25.0 mg/kg/injection, schedule: Q04DX002 (ip), vehicle: saline 92 % of control | dose: 50.0 mg/kg/injection, schedule: Q01DX009 (ip), vehicle: saline 89 % of control | dose: 50.0 mg/kg/injection, schedule: Q04DX002 (ip), vehicle: saline 103 % of control | dose: 100.0 mg/kg/injection, schedule: Q04DX002 (ip), vehicle: saline 96 % of control and 98 % of control

CC1CCC2(C)CCC3(C)C(=CCC4C5(C)CCC(OC(=O)c6ccccc6)C(C)(C)C5CCC43C)C2C1C (stereo not given)
inactive: dose: 100.0 mg/kg/injection, schedule: Q01DX001 (ip), vehicle: saline with Tween-80 96 % of control | dose: 200.0 mg/kg/injection, schedule: Q01DX001 (ip), vehicle: saline with Tween-80 102 % of control

NCCSc1ccc(Br)cc1
inactive: dose: 75.0 mg/kg/injection, schedule: Q01DX001 (ip), vehicle: other 100 % of control | dose: 150.0 mg/kg/injection, schedule: Q01DX001 (ip), vehicle: other 102 % of control

COC(OC)c1cccc([N+](=O)[O-])c1
inactive: [9] 111 % of control | [4] 107 % of control | [5] 102 % of control | [6] 100 % of control

COc1ccc(/C=N/NC(=S)Nc2ccccc2)cc1
inactive: [11] 103 % of control | [12] 95 % of control | [13] 108 % of control

C[N+](C)(C)c1ncnc2c1ncn2C1CC(O)C(CO)O1 (stereo not given)
inactive: [9] 104 % of control | [4] 96 % of control | [5] 102 % of control

CC/C(C)=C(/C(=O)O)c1ccccc1
inactive: dose: 100.0 mg/kg/injection, schedule: Q04DX003 (ip), vehicle: saline with Tween-80 91 % of control | dose: 200.0 mg/kg/injection, schedule: Q04DX003 (ip), vehicle: saline with Tween-80 94 % of control | dose: 400.0 mg/kg/injection, schedule: Q04DX003 (ip), vehicle: saline with Tween-80 94 % of control

O=Cc1cccn1Cc1cc2c(cc1[N+](=O)[O-])OCO2
inactive: dose: 25.0 mg/kg/injection, schedule: Q04DX002 (ip), vehicle: Klucel (hydroxypropylcellulose) (HPC) 101 % of control | dose: 50.0 mg/kg/injection, schedule: Q04DX002 (ip), vehicle: Klucel (hydroxypropylcellulose) (HPC) 101 % of control | [7] 97 % of control

CCc1ccc(/C(C#N)=C/c2ccc(OC)cc2)cc1
inactive: [11] 92 % of control | [12] 94 % of control | [13] 92 % of control

O=C1C(Cl)=C(N2CC2)C(=O)C(Cl)=C1N1CC1
inactive: dose: 0.31 mg/kg/injection, schedule: Q01DX009 (ip), vehicle: alcohol 106 % of control | dose: 0.62 mg/kg/injection, schedule: Q01DX009 (ip), vehicle: alcohol 112 % of control | dose: 1.25 mg/kg/injection, schedule: Q01DX009 (ip), vehicle: alcohol 106 % of control | dose: 1.25 mg/kg/injection, schedule: Q01DX009 (ip), vehicle: saline 113 % of control | dose: 2.5 mg/kg/injection, schedule: Q01DX009 (ip), vehicle: alcohol 112 % of control | dose: 5.0 mg/kg/injection, schedule: Q01DX009 (ip), vehicle: alcohol 118 % of control | dose: 10.0 mg/kg/injection, schedule: Q01DX009 (ip), vehicle: saline 114 % of control
